Usually Km stands for the substrate concentration at which the rate is half of its maximum.

The values below come from article PMC9108871 (Frontiers in Plant Science, 2022).

Assay [1] concerns ALDH (aldehyde dehydrogenase; ALDH2). As to the kind of experiment: ALDH activity kit (Abcam), absorbance […] nm (NADH standard), Lineweaver-Burk. In kind it is biochemical, Citrus sinensis. Conditions: no Effector 3; incubation 1 h; varied substrate acetaldehyde (Methods).
For assay [2], the system named is GH17 (Glycosyl Hydrolase family 17). As to the kind of experiment: beta-glucosidase kit (MAK129), absorbance […] nm, Lineweaver-Burk. It counts as biochemical, Citrus sinensis. Conditions: K-phosphate 100 mM, pH 6.5, 37°C, 20 min; no LasP235; substrate taken from Methods.

For `CC=O` [acetaldehyde], the Km in assay [1] was 2130 µM.

`O=[N+]([O-])c1ccc(O[C@@H]2O[C@H](CO)[C@@H](O)[C@H](O)[C@H]2O)cc1` [p-nitrophenyl-β-D-glucopyranoside]: the Km in assay [2] was 42 µM.
